ChEMBL document CHEMBL3994622, “Design and synthesis of new RAF kinase-inhibiting antiproliferative quinoline derivatives. Part 2: Diarylurea derivatives” (Eur J Med Chem, 2017)

How the values were obtained:
Format in all cases: functional
CCRF-CEM = test: Growth inhibition of human CCRF-CEM cells assessed as cell growth at 10 uM incubated for 48 hrs by sulforhodamine B assay relative to control; details: read-out: Activity
HL-60(TB) = test: Growth inhibition of human HL-60(TB) cells assessed as cell growth at 10 uM incubated for 48 hrs by sulforhodamine B assay relative to control; details: HL-60, 48 h, read-out: Activity
MOLT-4 = test: Growth inhibition of human MOLT4 cells assessed as cell growth at 10 uM incubated for 48 hrs by sulforhodamine B assay relative to control; details: MOLT-4, 48 h, read-out: Activity
RPMI-8226 = test: Growth inhibition of human RPMI8226 cells assessed as cell growth at 10 uM incubated for 48 hrs by sulforhodamine B assay relative to control; details: RPMI-8226, 48 h, read-out: Activity
SR = test: Growth inhibition of human SR cells assessed as cell growth at 10 uM incubated for 48 hrs by sulforhodamine B assay relative to control; details: read-out: Activity
A549 = test: Growth inhibition of human A549/ATCC cells assessed as cell growth at 10 uM incubated for 48 hrs by sulforhodamine B assay relative to control; details: A549, 48 h, read-out: Activity
EKVX = test: Growth inhibition of human EKVX cells assessed as cell growth at 10 uM incubated for 48 hrs by sulforhodamine B assay relative to control; details: read-out: Activity
HOP-92 = test: Growth inhibition of human HOP92 cells assessed as cell growth at 10 uM incubated for 48 hrs by sulforhodamine B assay relative to control; details: HOP-92, 48 h, read-out: Activity
NCI-H23 = test: Growth inhibition of human NCI-H23 cells assessed as cell growth at 10 uM incubated for 48 hrs by sulforhodamine B assay relative to control; details: NCI-H23, 48 h, read-out: Activity
NCI-H460 = test: Growth inhibition of human NCI-H460 cells assessed as cell growth at 10 uM incubated for 48 hrs by sulforhodamine B assay relative to control; details: NCI-H460, 48 h, read-out: Activity
HCT-15 = test: Growth inhibition of human HCT15 cells assessed as cell growth at 10 uM incubated for 48 hrs by sulforhodamine B assay relative to control; details: HCT-15, 48 h, read-out: Activity
KM12 = test: Growth inhibition of human KM12 cells assessed as cell growth at 10 uM incubated for 48 hrs by sulforhodamine B assay relative to control; details: KM12, 48 h, read-out: Activity
SW-620 = test: Growth inhibition of human SW620 cells assessed as cell growth at 10 uM incubated for 48 hrs by sulforhodamine B assay relative to control; details: SW-620, 48 h, read-out: Activity
SF-268 = test: Growth inhibition of human SF268 cells assessed as cell growth at 10 uM incubated for 48 hrs by sulforhodamine B assay relative to control; details: SF-268, 48 h, read-out: Activity
SF-539 = test: Growth inhibition of human SF539 cells assessed as cell growth at 10 uM incubated for 48 hrs by sulforhodamine B assay relative to control; details: SF-539, 48 h, read-out: Activity
SNB-19 = test: Growth inhibition of human SNB19 cells assessed as cell growth at 10 uM incubated for 48 hrs by sulforhodamine B assay relative to control; details: SNB-19, 48 h, read-out: Activity
U-251 = test: Growth inhibition of human U251 cells assessed as cell growth at 10 uM incubated for 48 hrs by sulforhodamine B assay relative to control; details: U-251, 48 h, read-out: Activity
LOX IMVI = test: Growth inhibition of human LOXIMVI cells assessed as cell growth at 10 uM incubated for 48 hrs by sulforhodamine B assay relative to control; details: read-out: Activity
Malme-3M = test: Growth inhibition of human MALME-3M cells assessed as cell growth at 10 uM incubated for 48 hrs by sulforhodamine B assay relative to control; details: read-out: Activity
M14 = test: Growth inhibition of human M14 cells assessed as cell growth at 10 uM incubated for 48 hrs by sulforhodamine B assay relative to control; details: M14, 48 h, read-out: Activity
SK-MEL-28 = test: Growth inhibition of human SK-MEL-28 cells assessed as cell growth at 10 uM incubated for 48 hrs by sulforhodamine B assay relative to control; details: SK-MEL-28, 48 h, read-out: Activity
SK-MEL-5 = test: Growth inhibition of human SK-MEL-5 cells assessed as cell growth at 10 uM incubated for 48 hrs by sulforhodamine B assay relative to control; details: SK-MEL-5, 48 h, read-out: Activity
OVCAR-4 = test: Growth inhibition of human OVCAR4 cells assessed as cell growth at 10 uM incubated for 48 hrs by sulforhodamine B assay relative to control; details: OVCAR-4, 48 h, read-out: Activity
OVCAR-8 = test: Growth inhibition of human OVCAR8 cells assessed as cell growth at 10 uM incubated for 48 hrs by sulforhodamine B assay relative to control; details: OVCAR-8, 48 h, read-out: Activity
NCI/ADR-RES = test: Growth inhibition of human NCI/ADR-RES cells assessed as cell growth at 10 uM incubated for 48 hrs by sulforhodamine B assay relative to control; details: read-out: Activity
SK-OV-3 = test: Growth inhibition of human SKOV3 cells assessed as cell growth at 10 uM incubated for 48 hrs by sulforhodamine B assay relative to control; details: SK-OV-3, 48 h, read-out: Activity
786-0 = test: Growth inhibition of human 786-0 cells assessed as cell growth at 10 uM incubated for 48 hrs by sulforhodamine B assay relative to control; details: 786-0, 48 h, read-out: Activity
ACHN = test: Growth inhibition of human ACHN cells assessed as cell growth at 10 uM incubated for 48 hrs by sulforhodamine B assay relative to control; details: read-out: Activity
RXF 393 = test: Growth inhibition of human RXF393 cells assessed as cell growth at 10 uM incubated for 48 hrs by sulforhodamine B assay relative to control; details: RXF 393, 48 h, read-out: Activity
SN12C = test: Growth inhibition of human SN12C cells assessed as cell growth at 10 uM incubated for 48 hrs by sulforhodamine B assay relative to control; details: read-out: Activity
PC-3 = test: Growth inhibition of human PC3 cells assessed as cell growth at 10 uM incubated for 48 hrs by sulforhodamine B assay relative to control; details: PC-3, 48 h, read-out: Activity
DU-145 = test: Growth inhibition of human DU145 cells assessed as cell growth at 10 uM incubated for 48 hrs by sulforhodamine B assay relative to control; details: DU-145, 48 h, read-out: Activity
Hs-578T = test: Growth inhibition of human Hs 578T cells assessed as cell growth at 10 uM incubated for 48 hrs by sulforhodamine B assay relative to control; details: read-out: Activity
T47D = test: Growth inhibition of human T47D cells assessed as cell growth at 10 uM incubated for 48 hrs by sulforhodamine B assay relative to control; details: read-out: Activity

SMILES | growth at 10 µM (CCRF-CEM) [%] | growth at 10 µM (HL-60(TB)) [%] | growth at 10 µM (MOLT-4) [%] | growth at 10 µM (RPMI-8226) [%] | growth at 10 µM (SR) [%] | growth at 10 µM (A549) [%] | growth at 10 µM (EKVX) [%] | growth at 10 µM (HOP-92) [%] | growth at 10 µM (NCI-H23) [%] | growth at 10 µM (NCI-H460) [%] | growth at 10 µM (HCT-15) [%] | growth at 10 µM (KM12) [%] | growth at 10 µM (SW-620) [%] | growth at 10 µM (SF-268) [%] | growth at 10 µM (SF-539) [%] | growth at 10 µM (SNB-19) [%] | growth at 10 µM (U-251) [%] | growth at 10 µM (LOX IMVI) [%] | growth at 10 µM (Malme-3M) [%] | growth at 10 µM (M14) [%] | other results
COc1cc2cc(Oc3ccc(NC(=O)Nc4ccc(Cl)c(C(F)(F)F)c4)cc3)c(C)nc2cc1OC | -17.6 | -40.6 | -27.9 | -26.4 | -32.5 | -17.2 | 8.83 | -22.3 | 3.46 | -19.8 | 1.27 | -16.4 | 7.51 | -10.2 | -36.2 | 23.7 | -80.4 | -81.3 | -23 | -73.7 | growth at 10 µM (SK-MEL-28): -35.9%; growth at 10 µM (SK-MEL-5): -73.4%; growth at 10 µM (OVCAR-4): 17.1%; growth at 10 µM (OVCAR-8): 7.34%; growth at 10 µM (NCI/ADR-RES): 2.01%; growth at 10 µM (SK-OV-3): -4.09%; growth at 10 µM (786-0): -21.1%; growth at 10 µM (ACHN): 13.6%; growth at 10 µM (RXF 393): -33.4%; growth at 10 µM (SN12C): 13.2%; growth at 10 µM (PC-3): -0.61%; growth at 10 µM (DU-145): 12.7%; growth at 10 µM (Hs-578T): 2.5%; growth at 10 µM (T47D): 21.4%
COc1cc2cc(Oc3ccc(NC(=O)Nc4ccc(C(F)(F)F)cc4)cc3)c(C)nc2cc1OC | 68.5 | 75.2 | 61.9 | 52.7 | 59.6 | 32.4 | 75.7 | 56.3 | 79.3 | 42.8 | 75.4 | 64.4 | 75.3 | 79.3 | 96.9 | 93.5 | 15 | 56.4 | 82.9 | 95.2 | growth at 10 µM (SK-MEL-28): 58.4%; growth at 10 µM (SK-MEL-5): 47.4%; growth at 10 µM (OVCAR-4): 49%; growth at 10 µM (OVCAR-8): 37.8%; growth at 10 µM (NCI/ADR-RES): 64.1%; growth at 10 µM (SK-OV-3): 38.8%; growth at 10 µM (786-0): 74.9%; growth at 10 µM (ACHN): 56.1%; growth at 10 µM (RXF 393): 6.29%; growth at 10 µM (SN12C): 72.2%; growth at 10 µM (PC-3): 48.3%; growth at 10 µM (DU-145): 71.4%; growth at 10 µM (Hs-578T): 70.9%; growth at 10 µM (T47D): 57.5%
Cc1nc2cc(O)c(O)cc2cc1Oc1ccc(NC(=O)Nc2ccc(Cl)c(Cl)c2)cc1 | 19.9 | 96.8 | 12.6 | 75.7 | 8.92 | 50.5 | 98.5 | 37.5 | 62.8 | 62.1 | 37.2 | 74.7 | 49.3 | 65.5 | 56.9 | 49 | 41.4 | 0.46 | 85.2 | 80.8 | growth at 10 µM (SK-MEL-28): 79.1%; growth at 10 µM (SK-MEL-5): -42.2%; growth at 10 µM (OVCAR-4): 67.7%; growth at 10 µM (OVCAR-8): 47.7%; growth at 10 µM (NCI/ADR-RES): 59%; growth at 10 µM (SK-OV-3): 45%; growth at 10 µM (786-0): 103%; growth at 10 µM (ACHN): 39%; growth at 10 µM (RXF 393): 20.4%; growth at 10 µM (SN12C): 85.7%; growth at 10 µM (PC-3): 39.3%; growth at 10 µM (DU-145): 60.3%; growth at 10 µM (Hs-578T): 105%; growth at 10 µM (T47D): 62.2%
